This is an account of results in patent US7049282B2, “Inhibition of complement action” (Duke University, priority 1999, dated 2006).

The subject of the assay is complement binding to the sheep erythrocyte targets. As to the kind of experiment: standard assay of inhibition of complement binding (Miletic et al): sheep erythrocytes sensitized with rabbit antibody, C8D human serum. It is filed as biochemical. The text has this: In addition to the peptides and derivatives described above, the invention also relates to mimetics of the peptides that have the above-described complement blocking function. The mimetics can be identified using protocols available in the art, including those described by Miletic et al, J. Immunology 156:749 (1996)) which are based on the binding of complement to antibody-sensitized red blood cells and on the binding of complement to solid phase immune complexes. As described below, these protocols can be used to identify complement-blocking peptides and derivatives as well.
Peptides, derivatives and mimetics that block complement function can be identified by incubating a target for an active complement protein, for example, antibody-coated particles (e.g., antibody-sensitized red blood cells) or immune complexes (e.g., bovine serum albumin-anti-bovine serum complexes) bound to a solid support, with the a complement protein or a complement activating system (e.g., containing C3 or C4 or mixtures of complement proteins such as found in serum (e.g., C8 or C9 deficient serum)), in the presence and in the absence of the test agent (peptide, derivative or mimetic). […] The amount of binding can be determined using any of a variety of approaches, including using radiolabeled anti-complement protein IgG. […]

On to WESNGQPENN, for which the “activity in inhibiting complement binding” value (IgG fragments and peptides isolated from digests) is “highly active”. Besides, the “activity in complement inhibition” value (synthesized peptides) was “highly active”.
